According to patent US12509444B2, “Compounds and methods for CD73 modulation and indications therefor” (Plexxikon Inc., priority 2019, dated 2025):

How the values were obtained:
[1] = target: T1, Human CD73 (amino acid residues 27-549) (Homo sapiens, UniProt P21589); experiment: CD73 enzymatic assay (luciferase-based indirect assay, CellTiter-Glo); assay type: biochemical; settings: 0.4 nM CD73, 150 μM AMP, 1 hour at room temperature
T1 construct: Human CD73 (amino acid residues 27-549); His tag (N); made in house; host or cells: E. coli
T1 sequence (P21589 27-549): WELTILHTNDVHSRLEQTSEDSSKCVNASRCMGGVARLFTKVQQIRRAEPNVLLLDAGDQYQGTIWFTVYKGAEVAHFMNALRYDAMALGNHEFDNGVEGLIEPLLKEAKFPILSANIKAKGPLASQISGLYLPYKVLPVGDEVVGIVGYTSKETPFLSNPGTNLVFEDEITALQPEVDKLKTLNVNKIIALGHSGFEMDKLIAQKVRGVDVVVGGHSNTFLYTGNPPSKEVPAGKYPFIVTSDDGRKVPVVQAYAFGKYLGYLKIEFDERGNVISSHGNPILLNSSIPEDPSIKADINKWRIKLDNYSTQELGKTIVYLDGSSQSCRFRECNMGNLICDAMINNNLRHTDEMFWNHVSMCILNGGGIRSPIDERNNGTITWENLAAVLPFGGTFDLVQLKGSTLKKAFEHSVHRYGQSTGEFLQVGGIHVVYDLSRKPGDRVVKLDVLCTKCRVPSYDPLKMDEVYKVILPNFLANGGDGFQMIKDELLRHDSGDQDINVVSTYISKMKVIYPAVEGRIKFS
In short: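 Residual AMP inhibits luciferase, so luminescence reports CD73 turnover; read with CellTiter-Glo 2.0 plus 1 μM final ATP, 30 min. Reaction used 0.4 nM N-His CD73 (27-549, E. coli), 150 μM AMP, HEPES pH 7.4 with Tween 20, 1 h at room temperature. IC50 fitted by nonlinear regression.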

[2] = target: T2, human CD73 (Homo sapiens, UniProt P21589); experiment: Inhibitor activity against CD73 in cell based assay (CD73 expressing CHO-K1 cells); settings: CHO-K1 cells expressing human CD73, 150 μM AMP, 4 hours of incubation; read-out: CHO-K1 CELL VARIANT: CD73 IC50
T2 construct: expressed in transfected cells
T2 sequence (P21589 27-549): T1 sequence (P21589 27-549)
In short: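 Residual supernatant AMP was quantified via CellTiter-Glo luminescence (1 μM ATP added, 30 min, room temperature) after a 4 h exposure of human CD73-expressing CHO-K1 cells to 150 μM AMP plus compound, top final 10 μM, 8 points. IC50 came from nonlinear regression of percent inhibition.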

SMILES | IC50 [1] | IC50 [2]
O=C(NC1CCN(C(=O)c2ccccc2C(F)(F)F)CC1)O[C@@H]1CCN(c2cn[nH]c(=O)c2Cl)C1 [P-0403, (R)-1-(5-chloro-6-oxo-1,6-dihydropyridazin-4-yl)pyrrolidin-3-yl (1-(2-(trifluoromethyl)benzoyl)piperidin-4-yl)carbamate] | 0.001 to 10 µM | 0.001 to 10 µM
O=C(NC1CCN(C(=O)c2ccc(F)cc2)CC1)O[C@@H]1CCN(c2cn[nH]c(=O)c2Cl)C1 [P-0404, (R)-1-(5-chloro-6-oxo-1,6-dihydropyridazin-4-yl)pyrrolidin-3-yl (1-(4-fluorobenzoyl)piperidin-4-yl)carbamate] | 0.001 to 10 µM | 0.001 to 10 µM
CC1(NC(=O)O[C@@H]2CCN(c3cn[nH]c(=O)c3Cl)C2)CCCC1 [P-0405, (R)-1-(5-chloro-6-oxo-1,6-dihydropyridazin-4-yl)pyrrolidin-3-yl (1-methylcyclopentyl)carbamate] | 0.001 to 10 µM | 0.001 to 10 µM
O=C(NC1(C2CCCC2)CC1)O[C@@H]1CCN(c2cn[nH]c(=O)c2Cl)C1 [P-0406, (R)-1-(5-chloro-6-oxo-1,6-dihydropyridazin-4-yl)pyrrolidin-3-yl (1-cyclopentylcyclopropyl) carbamate] | 0.001 to 10 µM | 0.001 to 10 µM
O=C1CC2CCC(C1)C2NC(=O)O[C@@H]1CCN(c2cn[nH]c(=O)c2Cl)C1 (stereo partly drawn) [P-0407, (R)-1-(5-chloro-6-oxo-1,6-dihydropyridazin-4-yl)pyrrolidin-3-yl (3-oxobicyclo[3.2.1]octan-8-yl)carbamate] | 0.001 to 10 µM | 0.001 to 10 µM
CCC1(NC(=O)O[C@@H]2CCN(c3cn[nH]c(=O)c3Cl)C2)CCCC1 [P-0408, (R)-1-(5-chloro-6-oxo-1,6-dihydropyridazin-4-yl)pyrrolidin-3-yl (1-ethylcyclopentyl)carbamate] | 0.001 to 10 µM | 0.001 to 10 µM
CS(=O)(=O)N[C@H]1CC[C@H](NC(=O)O[C@@H]2CCN(c3cnn(CC(O)CO)c(=O)c3Cl)C2)CC1 (stereo partly drawn) [P-0409, (3R)-1-(5-chloro-1-(2,3-dihydroxypropyl)-6-oxo-1,6-dihydropyridazin-4-yl)pyrrolidin-3-yl ((1r,4R)-4-(methylsulfonamido)cyclohexyl)carbamate] | 0.001 to 10 µM | 0.001 to 10 µM
O=C(NC1(C2CCCCC2)CC1)O[C@@H]1CCN(c2cn[nH]c(=O)c2Cl)C1 [P-0410, (R)-1-(5-chloro-6-oxo-1,6-dihydropyridazin-4-yl)pyrrolidin-3-yl (1-cyclohexylcyclopropyl) carbamate] | 0.001 to 10 µM | 0.001 to 10 µM
N#CCC1(NC(=O)O[C@@H]2CCN(c3cn[nH]c(=O)c3Cl)C2)CCCC1 [P-0411, (R)-1-(5-chloro-6-oxo-1,6-dihydropyridazin-4-yl)pyrrolidin-3-yl (1-(cyanomethyl)cyclopentyl) carbamate] | 0.001 to 10 µM | 0.001 to 10 µM
Cc1csc(C2(NC(=O)O[C@@H]3CCN(c4cn[nH]c(=O)c4Cl)C3)CCCC2)n1 [P-0412, (R)-1-(5-chloro-6-oxo-1,6-dihydropyridazin-4-yl)pyrrolidin-3-yl (1-(4-methylthiazol-2-yl)cyclopentyl)carbamate] | 0.001 to 10 µM | 0.001 to 10 µM
CC1(C)CCCCC1NC(=O)O[C@@H]1CCN(c2cn[nH]c(=O)c2Cl)C1 (stereo partly drawn) [P-0413, (R)-1-(5-chloro-6-oxo-1,6-dihydropyridazin-4-yl)pyrrolidin-3-yl (2,2-dimethylcyclohexyl)carbamate] | 0.001 to 10 µM | 0.001 to 10 µM
NCCn1ncc(N2CC[C@@H](OC(=O)NC3CCC(F)(F)CC3)C2)c(Cl)c1=O [P-0414, (R)-1-(1-(2-aminoethyl)-5-chloro-6-oxo-1,6-dihydropyridazin-4-yl)pyrrolidin-3-yl (4,4-difluorocyclohexyl)carbamate] | 0.001 to 10 µM | 0.001 to 10 µM
NCCn1ncc(N2CC[C@@H](OC(=O)NC3CCCC3)C2)c(Cl)c1=O [P-0415, (R)-1-(1-(2-aminoethyl)-5-chloro-6-oxo-1,6-dihydropyridazin-4-yl)pyrrolidin-3-yl cyclopentylcarbamate] | 0.001 to 10 µM | 0.001 to 10 µM
O=C(NC1CCN(C(=O)c2cccnc2)CC1)O[C@@H]1CCN(c2cn[nH]c(=O)c2Cl)C1 [P-0416, (R)-1-(5-chloro-6-oxo-1,6-dihydropyridazin-4-yl)pyrrolidin-3-yl (1-nicotinoylpiperidin-4-yl)carbamate] | 0.001 to 10 µM | 0.001 to 10 µM
O=C(NC1CCN(C(=O)c2cccnc2Cl)CC1)O[C@@H]1CCN(c2cn[nH]c(=O)c2Cl)C1 [P-0417, (R)-1-(5-chloro-6-oxo-1,6-dihydropyridazin-4-yl)pyrrolidin-3-yl (1-(2-chloronicotinoyl)piperidin-4-yl)carbamate] | 0.001 to 10 µM | 0.001 to 10 µM
O=C(NC1CCN(C(=O)c2ccc(Cl)nc2)CC1)O[C@@H]1CCN(c2cn[nH]c(=O)c2Cl)C1 [P-0418, (R)-1-(5-chloro-6-oxo-1,6-dihydropyridazin-4-yl)pyrrolidin-3-yl (1-(6-chloronicotinoyl)piperidin-4-yl)carbamate] | 0.001 to 10 µM | 0.001 to 10 µM
O=C(NC1CCN(C(=O)c2ccc(C(F)(F)F)nc2)CC1)O[C@@H]1CCN(c2cn[nH]c(=O)c2Cl)C1 [P-0419, (R)-1-(5-chloro-6-oxo-1,6-dihydropyridazin-4-yl)pyrrolidin-3-yl (1-(6-(trifluoromethyl)nicotinoyl)piperidin-4-yl)carbamate] | 0.001 to 10 µM | 0.001 to 10 µM
O=C(NC1CCN(C(=O)Cc2ccccc2Br)CC1)O[C@@H]1CCN(c2cn[nH]c(=O)c2Cl)C1 [P-0420, (R)-1-(5-chloro-6-oxo-1,6-dihydropyridazin-4-yl)pyrrolidin-3-yl (1-(2-(2-bromophenyl)acetyl)piperidin-4-yl)carbamate] | 0.001 to 10 µM | 0.001 to 10 µM
O=C(NC1CCN(C(=O)Cc2ccccc2Cl)CC1)O[C@@H]1CCN(c2cn[nH]c(=O)c2Cl)C1 [P-0421, (R)-1-(5-chloro-6-oxo-1,6-dihydropyridazin-4-yl)pyrrolidin-3-yl (1-(2-(2-chlorophenyl)acetyl)piperidin-4-yl)carbamate] | 0.001 to 10 µM | 0.001 to 10 µM
O=C(NC1CCN(C(=O)Cc2c(F)cccc2Cl)CC1)O[C@@H]1CCN(c2cn[nH]c(=O)c2Cl)C1 [P-0422, (R)-1-(5-chloro-6-oxo-1,6-dihydropyridazin-4-yl)pyrrolidin-3-yl (1-(2-(2-chloro-6-fluorophenyl)acetyl)piperidin-4-yl)carbamate] | 0.001 to 10 µM | 0.001 to 10 µM
O=C(NC1C2CCC1CC(O)C2)O[C@@H]1CCN(c2cn[nH]c(=O)c2Cl)C1 (stereo partly drawn) [P-0423, (R)-1-(5-chloro-6-oxo-1,6-dihydropyridazin-4-yl)pyrrolidin-3-yl (3-hydroxybicyclo[3.2.1]octan-8-yl)carbamate] | 0.001 to 10 µM | 0.001 to 10 µM
O=C(NC1CCCC(F)(F)C1)O[C@@H]1CCN(c2cn[nH]c(=O)c2Cl)C1 (stereo partly drawn) [P-0424, (R)-1-(5-chloro-6-oxo-1,6-dihydropyridazin-4-yl)pyrrolidin-3-yl (3,3-difluorocyclohexyl)carbamate] | 0.001 to 10 µM | 0.001 to 10 µM
CC1CCCC(NC(=O)O[C@@H]2CCN(c3cn[nH]c(=O)c3Cl)C2)C1 (stereo partly drawn) [P-0425, (R)-1-(5-chloro-6-oxo-1,6-dihydropyridazin-4-yl)pyrrolidin-3-yl (3-methylcyclohexyl)carbamate] | 0.001 to 10 µM | 0.001 to 10 µM
O=C(NC1CCCC12CC2)O[C@@H]1CCN(c2cn[nH]c(=O)c2Cl)C1 (stereo partly drawn) [P-0426, (R)-1-(5-chloro-6-oxo-1,6-dihydropyridazin-4-yl)pyrrolidin-3-yl spiro[2.4]heptan-4-ylcarbamate] | 0.001 to 10 µM | 0.001 to 10 µM
N#CC12CC(NC(=O)O[C@@H]3CCN(c4cn[nH]c(=O)c4Cl)C3)(C1)C2 [P-0427, (R)-1-(5-chloro-6-oxo-1,6-dihydropyridazin-4-yl)pyrrolidin-3-yl (3-cyanobicyclo[1.1.1]pentan-1-yl)carbamate] | 0.001 to 10 µM | 0.001 to 10 µM
O=C(NC12CC(C1)C2)O[C@@H]1CCN(c2cn[nH]c(=O)c2Cl)C1 [P-0428, (R)-1-(5-chloro-6-oxo-1,6-dihydropyridazin-4-yl)pyrrolidin-3-yl bicyclo[1.1.1]pentan-1-ylcarbamate] | 0.001 to 10 µM | 0.001 to 10 µM
O=C(NC1(CO)CCCC1)O[C@@H]1CCN(c2cn[nH]c(=O)c2Cl)C1 [P-0429, (R)-1-(5-chloro-6-oxo-1,6-dihydropyridazin-4-yl)pyrrolidin-3-yl (1-(hydroxymethyl)cyclopentyl) carbamate] | 0.001 to 10 µM | 0.001 to 10 µM
